Laboratory results published in ChEMBL document CHEMBL1201862, “PubChem BioAssay data set” (2004).
The source made the active and inactive calls.

Columns and labels:
Vero [1] = test: viability of Vero cells under compound – cytotoxicity control for flavivirus capping enzyme inhibitors (AID 588742); type: functional; conditions: Chlorocebus sabaeus
[2] = non-specific 3'UTR reporter inhibition in Clone20-Shn3RL – cell-based, Renilla luciferase, cherry-picked, counter-screen for Shn3 inhibitor project, dose response (AID 624133); type: functional
[3] = loss of viability in HepG2 cells – cell-based, CellTiter-Glo, cherry-picked, cytotoxicity control for Shn3 inhibitor project, dose response (AID 624134); type: functional
[4] = biological target: T1, Zinc finger protein mex-5 (Caenorhabditis elegans, UniProt Q9XUB2); test: potency of MEX-5 RNA-binding blockers – biochemical, C. elegans, fluorescence polarization, dose response (AID 1960)
T1 sequence (Q9XUB2 whole entry): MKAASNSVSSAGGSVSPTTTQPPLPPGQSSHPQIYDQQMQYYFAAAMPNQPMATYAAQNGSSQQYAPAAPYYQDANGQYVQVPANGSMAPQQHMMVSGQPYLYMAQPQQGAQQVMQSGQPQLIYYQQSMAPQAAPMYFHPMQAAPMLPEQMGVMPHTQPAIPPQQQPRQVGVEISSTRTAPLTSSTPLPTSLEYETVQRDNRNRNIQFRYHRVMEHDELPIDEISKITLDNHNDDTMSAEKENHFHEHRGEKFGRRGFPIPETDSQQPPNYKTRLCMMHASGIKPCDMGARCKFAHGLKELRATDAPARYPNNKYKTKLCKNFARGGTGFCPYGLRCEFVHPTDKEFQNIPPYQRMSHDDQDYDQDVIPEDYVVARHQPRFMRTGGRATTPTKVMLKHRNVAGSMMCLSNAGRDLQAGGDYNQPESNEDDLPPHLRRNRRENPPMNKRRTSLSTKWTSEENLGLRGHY

Vero [5] = test: cells; type: functional; conditions: Chlorocebus sabaeus
Genome polyprotein = Genome polyprotein (dengue virus type 2, UniProt P29990); test: flavivirus cap methylation enzyme inhibition – biochemical, confirmation dose response, primary screen (AID 588689); type: functional
[6] = reduction of Shn3 3'UTR-driven luciferase in osteoblasts – cell-based, Clone20 osteoblasts, firefly luciferase, cherry-picked, dose response (AID 624132); type: functional;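 further: firefly luciferase luminescence from reporter carrying the Shn3 3'UTR in osteoblasts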
[7] = biological target: T2, RNA-binding protein pos-1 (Caenorhabditis elegans, UniProt G5EF15); test: disruptors of C. elegans POS-1 RNA interaction – biochemical, fluorescence polarization, dose response (AID 1964);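 further: purified POS-1 fused to maltose binding protein made in E. coli; potency of compounds blocking POS-1 binding to fluorescent RNA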
T2 sequence (G5EF15 whole entry): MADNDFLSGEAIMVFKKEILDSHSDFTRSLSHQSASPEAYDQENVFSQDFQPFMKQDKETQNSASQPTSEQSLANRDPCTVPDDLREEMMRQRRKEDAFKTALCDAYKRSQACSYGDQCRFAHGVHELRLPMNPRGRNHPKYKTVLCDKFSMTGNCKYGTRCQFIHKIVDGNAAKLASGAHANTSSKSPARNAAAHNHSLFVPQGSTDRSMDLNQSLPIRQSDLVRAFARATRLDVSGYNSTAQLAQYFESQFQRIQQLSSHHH

Protein Wnt-3a = Protein Wnt-3a (Mus musculus, UniProt P27467); test: antagonism of Wnt3a pathway luciferase reporter – Wnt-LIGHT cells, luminescence, selectivity assay for Gli-SUFU antagonist project, dose response (AID 651570); type: functional; conditions: read-out: IC50_Mean;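 further: Wnt-LIGHT reporter cells stimulated with conditioned medium from Wnt3a-producing cells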
INS1 = test: INS-1E survival protection against cytokine death – cell-based, luminescence, retest, dose response (AID 449756); type: functional; conditions: Rattus norvegicus;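 further: cell death triggered by IL-1 beta plus TNF-alpha plus IFN-gamma mixture; protective hits raise ATP signal compared with cytokine alone wells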
[8] = biological target: T3, Methionyl-tRNA synthetase, putative (Trypanosoma brucei brucei, UniProt Q38C91); type: functional, Trypanosoma brucei brucei strain 927/4 GUTat10.1
T3 sequence (Q38C91 whole entry): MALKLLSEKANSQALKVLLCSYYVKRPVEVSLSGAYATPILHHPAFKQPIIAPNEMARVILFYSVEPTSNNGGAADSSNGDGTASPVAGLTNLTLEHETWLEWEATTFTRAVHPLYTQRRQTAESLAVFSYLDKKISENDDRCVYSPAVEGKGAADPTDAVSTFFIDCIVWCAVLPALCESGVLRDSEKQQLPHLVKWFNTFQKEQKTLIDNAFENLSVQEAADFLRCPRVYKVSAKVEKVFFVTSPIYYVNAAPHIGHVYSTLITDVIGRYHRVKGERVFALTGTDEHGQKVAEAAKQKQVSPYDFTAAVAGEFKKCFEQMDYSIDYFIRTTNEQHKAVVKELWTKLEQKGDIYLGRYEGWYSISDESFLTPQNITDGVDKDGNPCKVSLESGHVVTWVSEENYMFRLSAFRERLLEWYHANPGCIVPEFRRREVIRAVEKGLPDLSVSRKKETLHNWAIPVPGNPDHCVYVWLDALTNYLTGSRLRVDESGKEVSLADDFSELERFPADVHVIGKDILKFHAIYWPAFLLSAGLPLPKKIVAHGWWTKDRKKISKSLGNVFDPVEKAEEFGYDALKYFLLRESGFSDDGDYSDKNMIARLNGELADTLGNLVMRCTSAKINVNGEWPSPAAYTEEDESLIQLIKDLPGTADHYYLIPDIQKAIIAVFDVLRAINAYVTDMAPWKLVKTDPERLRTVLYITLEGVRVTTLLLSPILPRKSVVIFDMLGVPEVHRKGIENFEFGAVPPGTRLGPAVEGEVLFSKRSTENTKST

[9] = biological target: T3, Methionyl-tRNA synthetase, putative; type: functional, Trypanosoma brucei brucei strain 927/4 GUTat10.1; remark: listed apart in the source
[10] = biological target: Dual specificity protein phosphatase 3 (Homo sapiens, UniProt P51452); test: VHR phosphatase inhibition, dose response, selectivity assay for STEP inhibitor project, biochemical (AID 602374); type: functional; conditions: read-out: IC50_Mean
[11] = biological target: Tyrosine-protein phosphatase non-receptor type 5 (Homo sapiens, UniProt P54829); test: PTPN5 enzyme inhibition – biochemical, fluorescence intensity, uHTS hits, confirmation (AID 602372); type: functional; conditions: read-out: IC50_Mean
[12] = Counterscreen for inhibitors of Trypanosoma brucei methionyl tRNA synthetase (MetRS): Luminescence-based cell-based high throughput dose response assay to identify compounds that are cytotoxic to Jurkat human T lymphocyte cells.; type: functional
[13] = biological target: Tyrosine-protein phosphatase non-receptor type 11 (Homo sapiens, UniProt Q06124); test: PTPN11 enzyme inhibitors – biochemical, selectivity assay for STEP inhibitor project, dose response (AID 602367); type: functional; conditions: read-out: IC50_Mean
[14] = biological target: Mitogen-activated protein kinase 13 (Homo sapiens, UniProt O15264); type: functional
[15] = cAMP pathway inhibition in counterscreen cell line – TR-FRET cAMP detection, counter-screen for MC4R biased antagonist project, dose response (AID 602305); type: functional, cell-based;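 further: U2OS cells stimulated with forskolin near its EC80 as the cAMP inducer; potency is for inhibition of forskolin-stimulated cAMP signaling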
Melanocortin receptor 4 = Melanocortin receptor 4 (Homo sapiens, UniProt P32245); test: inhibitors of MC4R cAMP signaling – cell-based, TR-FRET, biased antagonists, dose response (AID 602298); type: functional;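 further: antagonist potency against agonist-stimulated cAMP production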
[16] = biological target: Eukaryotic translation initiation factor 4E (Mus musculus, UniProt P63073); test: blockers of eIF4G binding by eIF4E – biochemical, TR-FRET, dose response (AID 855); type: functional;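 further: potency for disrupting eIF4E binding to eIF4GI seen as loss of FRET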
[17] = biological target: T4, Apoptotic protease-activating factor 1 (Homo sapiens, UniProt O14727); type: functional
T4 sequence (O14727 whole entry): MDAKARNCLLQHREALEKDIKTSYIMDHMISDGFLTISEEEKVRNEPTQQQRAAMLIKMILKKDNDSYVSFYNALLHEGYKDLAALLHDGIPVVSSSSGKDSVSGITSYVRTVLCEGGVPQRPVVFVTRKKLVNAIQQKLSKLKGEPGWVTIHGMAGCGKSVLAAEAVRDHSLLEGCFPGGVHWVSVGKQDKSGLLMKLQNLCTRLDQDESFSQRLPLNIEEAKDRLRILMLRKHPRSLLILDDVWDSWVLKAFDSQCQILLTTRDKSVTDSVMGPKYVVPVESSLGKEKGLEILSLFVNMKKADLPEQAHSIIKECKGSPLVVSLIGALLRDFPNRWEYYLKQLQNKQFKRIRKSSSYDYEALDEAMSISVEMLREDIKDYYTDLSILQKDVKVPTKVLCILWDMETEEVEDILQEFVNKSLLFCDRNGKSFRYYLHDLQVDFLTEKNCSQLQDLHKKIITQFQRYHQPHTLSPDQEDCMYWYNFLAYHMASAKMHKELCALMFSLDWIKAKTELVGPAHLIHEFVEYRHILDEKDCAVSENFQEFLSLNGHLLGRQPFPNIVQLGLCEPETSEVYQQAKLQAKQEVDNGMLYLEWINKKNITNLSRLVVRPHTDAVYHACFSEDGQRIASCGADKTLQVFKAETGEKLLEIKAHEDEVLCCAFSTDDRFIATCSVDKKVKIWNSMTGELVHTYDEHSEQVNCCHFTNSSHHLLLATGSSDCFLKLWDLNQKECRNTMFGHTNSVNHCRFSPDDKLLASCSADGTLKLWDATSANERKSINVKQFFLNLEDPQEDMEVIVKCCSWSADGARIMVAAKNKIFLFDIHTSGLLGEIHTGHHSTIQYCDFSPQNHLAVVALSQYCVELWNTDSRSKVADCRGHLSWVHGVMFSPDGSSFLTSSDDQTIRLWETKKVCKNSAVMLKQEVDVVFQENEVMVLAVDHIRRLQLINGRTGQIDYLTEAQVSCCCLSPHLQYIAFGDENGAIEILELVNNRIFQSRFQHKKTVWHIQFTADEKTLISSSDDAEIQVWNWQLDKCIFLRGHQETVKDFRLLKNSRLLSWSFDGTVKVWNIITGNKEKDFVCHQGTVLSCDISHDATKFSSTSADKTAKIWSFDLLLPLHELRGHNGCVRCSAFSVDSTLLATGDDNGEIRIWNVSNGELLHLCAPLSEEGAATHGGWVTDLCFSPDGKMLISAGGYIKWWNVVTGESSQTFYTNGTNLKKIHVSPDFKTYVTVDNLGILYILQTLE

[18] = biological target: T5, Ubiquitin-conjugating enzyme E2 N (Homo sapiens, UniProt P61088); type: functional;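 further: Dose-response confirmation in a TR-FRET assay detecting UBC13-driven polyubiquitin chain formation, inhibition measured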
T5 sequence (P61088 whole entry): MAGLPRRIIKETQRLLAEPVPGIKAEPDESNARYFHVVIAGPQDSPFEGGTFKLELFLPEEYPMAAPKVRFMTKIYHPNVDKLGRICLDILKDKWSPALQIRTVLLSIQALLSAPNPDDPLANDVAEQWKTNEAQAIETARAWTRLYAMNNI

[19] = HEK-293T viability loss after treatment – luminescence, T-cell screen hits, cytotoxicity control for TCR NF-kB inhibitor project, dose response (AID 489026); type: functional, cell-based;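 further: cells exposed to compound about 14 hours before the viability readout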
[20] = biological target: Heat shock protein HSP 90-alpha (Homo sapiens, UniProt P07900); type: functional, organism-based
[21] = biological target: T6, Small ubiquitin-related modifier 1 (Homo sapiens, UniProt P63165); test: SUMO1 protein-protein binding blockers, potency – biochemical, FRET, dose response (AID 624383); type: functional; conditions: read-out: IC50_Mean
[22] = viability of HCT116 lacking mutant beta-catenin – cell-based, human colon tumor, dose response (AID 1045); type: functional;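 further: HCT116 colon tumor cells with beta catenin knocked out; cells exposed to compound for 60 hours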
[23] = viability of PTEN-deleted HCT116 cells – cell-based, HCT116 PTEN knockout, dose response (AID 1047); type: functional;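 further: HCT116 colon tumor cells with PTEN knocked out; cells exposed to compound for 60 hours before readout; potency for loss of cell viability measured by luminescence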
[24] = biological target: T6, Small ubiquitin-related modifier 1; test: SUMO1 protein interaction blockers, potency – biochemical, fluorescence polarization, uHTS hits, dose response (AID 624382); type: functional; conditions: read-out: IC50_Mean
[25] = mammalian cell viability loss – Alamar Blue, dry powder, cytotoxicity control for antifungal single agent project, dose response (AID 602188); type: functional, cell-based
[26] = inhibition of ARNT PAS-B/TACC3 complex formation – biochemical, AlphaScreen, cherry-picked samples, confirmation (AID 651703); type: functional, Homo sapiens;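 further: His-tagged ARNT PAS-B domain paired with GST-TACC3 E629A dimer coactivator fragment; potency of inhibitors that break up the complex and lower AlphaScreen signal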

T6 sequence (P63165 whole entry): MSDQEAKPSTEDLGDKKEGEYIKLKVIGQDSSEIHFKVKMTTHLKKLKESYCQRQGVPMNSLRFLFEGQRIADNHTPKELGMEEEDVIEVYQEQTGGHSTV
Sequence of Melanocortin receptor 4 (P32245 whole entry): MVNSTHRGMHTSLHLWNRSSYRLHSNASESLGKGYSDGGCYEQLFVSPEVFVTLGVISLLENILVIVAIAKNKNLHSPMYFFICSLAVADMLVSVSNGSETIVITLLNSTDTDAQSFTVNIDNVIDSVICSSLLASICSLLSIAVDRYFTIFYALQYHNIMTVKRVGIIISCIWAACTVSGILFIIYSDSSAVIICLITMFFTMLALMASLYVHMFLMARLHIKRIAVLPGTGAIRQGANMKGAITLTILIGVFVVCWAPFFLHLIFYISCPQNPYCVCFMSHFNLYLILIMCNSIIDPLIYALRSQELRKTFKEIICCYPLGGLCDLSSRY
Sequence of Mitogen-activated protein kinase 13 (O15264 whole entry): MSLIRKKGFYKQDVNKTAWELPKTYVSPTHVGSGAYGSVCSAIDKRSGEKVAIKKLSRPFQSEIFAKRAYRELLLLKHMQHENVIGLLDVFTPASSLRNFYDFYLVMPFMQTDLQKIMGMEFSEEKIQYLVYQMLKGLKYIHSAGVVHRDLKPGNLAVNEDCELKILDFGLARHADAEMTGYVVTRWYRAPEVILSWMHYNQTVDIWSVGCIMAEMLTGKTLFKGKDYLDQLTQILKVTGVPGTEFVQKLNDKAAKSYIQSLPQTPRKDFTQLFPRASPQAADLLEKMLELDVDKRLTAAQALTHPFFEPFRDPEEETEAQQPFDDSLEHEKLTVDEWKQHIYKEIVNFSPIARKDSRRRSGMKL
Sequence of Protein Wnt-3a (P27467 whole entry): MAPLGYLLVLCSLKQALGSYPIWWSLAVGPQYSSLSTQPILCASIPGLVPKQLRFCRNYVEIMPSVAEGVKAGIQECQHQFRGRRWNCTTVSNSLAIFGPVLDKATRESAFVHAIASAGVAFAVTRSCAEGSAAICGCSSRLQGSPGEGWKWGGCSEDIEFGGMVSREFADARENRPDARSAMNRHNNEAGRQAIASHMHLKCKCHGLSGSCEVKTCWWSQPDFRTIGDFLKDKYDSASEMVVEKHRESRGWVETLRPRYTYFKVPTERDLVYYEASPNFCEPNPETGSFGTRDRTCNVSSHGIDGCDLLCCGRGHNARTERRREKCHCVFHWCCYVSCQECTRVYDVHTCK
Sequence of Tyrosine-protein phosphatase non-receptor type 5 (P54829 whole entry): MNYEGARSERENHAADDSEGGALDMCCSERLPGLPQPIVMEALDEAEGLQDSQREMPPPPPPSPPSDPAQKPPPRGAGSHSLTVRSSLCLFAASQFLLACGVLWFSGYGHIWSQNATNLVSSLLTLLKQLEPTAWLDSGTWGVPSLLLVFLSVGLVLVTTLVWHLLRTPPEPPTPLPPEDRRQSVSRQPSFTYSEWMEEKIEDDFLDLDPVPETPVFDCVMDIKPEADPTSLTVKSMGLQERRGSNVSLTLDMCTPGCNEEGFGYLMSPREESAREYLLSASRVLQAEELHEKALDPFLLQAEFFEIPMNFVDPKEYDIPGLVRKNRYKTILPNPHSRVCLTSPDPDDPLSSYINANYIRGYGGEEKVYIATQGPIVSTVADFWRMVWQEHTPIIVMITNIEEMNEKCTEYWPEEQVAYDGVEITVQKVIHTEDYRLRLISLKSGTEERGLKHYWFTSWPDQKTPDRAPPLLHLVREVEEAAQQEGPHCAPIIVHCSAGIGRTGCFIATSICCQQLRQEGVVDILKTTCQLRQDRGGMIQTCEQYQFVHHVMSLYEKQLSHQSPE
Sequence of Dual specificity protein phosphatase 3 (P51452 whole entry): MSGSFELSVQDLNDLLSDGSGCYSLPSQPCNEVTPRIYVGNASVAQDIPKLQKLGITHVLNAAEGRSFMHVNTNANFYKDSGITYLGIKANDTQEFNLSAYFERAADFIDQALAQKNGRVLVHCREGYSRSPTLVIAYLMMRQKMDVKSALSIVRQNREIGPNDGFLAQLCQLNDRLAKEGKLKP
Sequence of Genome polyprotein (P29990 2492-3391 limits assumed): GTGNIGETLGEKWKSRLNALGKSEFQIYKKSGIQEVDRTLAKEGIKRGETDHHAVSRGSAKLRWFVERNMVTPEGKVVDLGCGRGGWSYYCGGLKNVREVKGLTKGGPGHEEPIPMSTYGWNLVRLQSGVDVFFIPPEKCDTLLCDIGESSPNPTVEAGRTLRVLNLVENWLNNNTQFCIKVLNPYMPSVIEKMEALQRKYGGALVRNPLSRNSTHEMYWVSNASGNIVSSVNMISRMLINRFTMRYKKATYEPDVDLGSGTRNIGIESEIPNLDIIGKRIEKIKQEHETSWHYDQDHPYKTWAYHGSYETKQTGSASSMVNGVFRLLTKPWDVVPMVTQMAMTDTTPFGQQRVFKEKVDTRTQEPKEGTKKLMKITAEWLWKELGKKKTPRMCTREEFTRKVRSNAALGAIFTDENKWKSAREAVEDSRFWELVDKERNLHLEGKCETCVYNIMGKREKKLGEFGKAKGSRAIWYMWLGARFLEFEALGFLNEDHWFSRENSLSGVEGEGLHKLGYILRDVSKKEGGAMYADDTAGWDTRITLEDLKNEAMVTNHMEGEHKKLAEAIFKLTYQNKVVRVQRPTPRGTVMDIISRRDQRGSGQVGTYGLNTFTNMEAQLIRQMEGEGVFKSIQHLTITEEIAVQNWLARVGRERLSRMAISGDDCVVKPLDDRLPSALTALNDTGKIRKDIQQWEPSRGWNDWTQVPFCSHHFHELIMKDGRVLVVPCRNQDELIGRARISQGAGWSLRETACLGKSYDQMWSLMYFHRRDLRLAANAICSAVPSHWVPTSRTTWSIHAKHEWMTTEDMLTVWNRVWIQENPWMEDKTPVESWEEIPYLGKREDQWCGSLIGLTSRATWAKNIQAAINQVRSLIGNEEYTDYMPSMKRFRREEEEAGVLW
Sequence of Tyrosine-protein phosphatase non-receptor type 11 (Q06124 whole entry): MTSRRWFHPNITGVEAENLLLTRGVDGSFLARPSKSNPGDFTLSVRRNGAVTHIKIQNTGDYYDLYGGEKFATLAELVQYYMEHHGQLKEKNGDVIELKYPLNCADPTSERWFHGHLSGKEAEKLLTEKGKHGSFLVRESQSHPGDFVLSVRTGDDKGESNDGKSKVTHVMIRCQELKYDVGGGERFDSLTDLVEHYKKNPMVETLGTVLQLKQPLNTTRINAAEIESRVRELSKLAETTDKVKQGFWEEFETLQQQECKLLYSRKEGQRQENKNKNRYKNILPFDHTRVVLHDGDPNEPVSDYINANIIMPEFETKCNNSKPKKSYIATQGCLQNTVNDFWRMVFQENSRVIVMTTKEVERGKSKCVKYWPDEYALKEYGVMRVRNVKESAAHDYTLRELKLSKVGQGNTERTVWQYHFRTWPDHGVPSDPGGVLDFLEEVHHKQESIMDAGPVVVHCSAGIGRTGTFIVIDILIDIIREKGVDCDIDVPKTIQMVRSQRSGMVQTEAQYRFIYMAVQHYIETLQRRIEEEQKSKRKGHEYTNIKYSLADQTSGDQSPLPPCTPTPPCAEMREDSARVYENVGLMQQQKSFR
Sequence of Eukaryotic translation initiation factor 4E (P63073 whole entry): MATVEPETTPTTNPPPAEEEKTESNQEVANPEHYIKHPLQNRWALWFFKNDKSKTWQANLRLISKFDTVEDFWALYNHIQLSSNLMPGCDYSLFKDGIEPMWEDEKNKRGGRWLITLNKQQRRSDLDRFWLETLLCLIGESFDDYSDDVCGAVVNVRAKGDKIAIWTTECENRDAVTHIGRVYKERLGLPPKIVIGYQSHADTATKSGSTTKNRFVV

Structure (SMILES): CCOc1cc(/C=C2/C(=O)ON=C2C)ccc1OCc1ccccc1F
- CC50 (Vero [1]): > 40 µM (active)
- AC50 [2]: 28.2 µM (active)
- AC50 [3]: 69.3 µM (active)
- EC50 [4]: 37.3 µM (inconclusive)
- CC50 (Vero [5]): > 25 µM (active)
- IC50 (Genome polyprotein): 41.5 µM (active)
- AC50 [6]: 6.95 µM (active)
- EC50 [7]: 53.5 µM (active)

Structure (SMILES): CCN(CC)C(=O)c1ccc(S(=O)(=O)N2CCC(c3nc4ccccc4s3)CC2)cc1
- IC50 (Protein Wnt-3a): 39.7 µM (inactive)
- AC50 (INS1): 5.69 µM (active)

Structure (SMILES): Cc1ccc(S(=O)(=O)c2cnc3ccc(Cl)cc3c2O)cc1
- IC50 [8]: 119 µM (inactive)
- IC50 [9]: 4.9 µM (active)
- IC50 [10]: 26.9 µM (inactive)
- IC50 [11]: 39.1 µM (inactive)
- IC50 [12]: 83.4 µM (inactive)
- IC50 [13]: 14.5 µM (active)

Structure (SMILES): NC1C2CN(c3nc4c(cc3F)c(=O)c(C(=O)O)cn4-c3ccc(F)cc3F)CC12 (stereo not given)
- Ki [14]: > 7.94 µM (inactive)

Structure (SMILES): CCN(C(=O)COC(=O)CSc1ccc(C(N)=O)cc1[N+](=O)[O-])C1CCCCC1
- IC50 [15]: > 64.6 µM (inactive)
- IC50 (Melanocortin receptor 4): > 64.6 µM (inactive)

Structure (SMILES): CCCCCCCCCCCCCCCC[n+]1ccc(C(N)=O)cc1
- IC50 [16]: 25.1 µM (active)
- IC50 [17]: 25.7 µM (active)
- IC50 [18]: > 20 µM (inactive)
- IC50 [19]: 74.4 µM (inactive)
- AC50 [20]: 8.77 µM (active)
- IC50 [21]: 13.8 µM (active)
- EC50 [22]: 6.46 µM (active)
- EC50 [23]: 6.2 µM (active)
- IC50 [24]: > 66.6 µM (inactive)

Structure (SMILES): Oc1c(C(c2ccccc2Cl)N2CCCCC2)ccc2cccnc12 (stereo not given)
- AC50 [25]: 5.69 µM (active)

Structure (SMILES): C[C@@H]1CN([C@H](C)CO)C(=O)c2cc(N(C)C)ccc2O[C@@H](C)CCCCO[C@@H]1CN(C)Cc1ccc2c(c1)OCO2
- AC50 [26]: 74.9 µM (active)
